Values of other authors as cited in US11823773B2, “Nant cancer vaccine strategies” (Nant Holdings IP, LLC, priority 2018, dated 2023).

Legend:
[1] = system: advanced melanoma
[2] = system: CD20-positive NHL

For `CC(C)(C)c1nc(-c2cccc(NS(=O)(=O)c3c(F)cccc3F)c2F)c(-c2ccnc(N)n2)s1` [Dabrafenib], the “PFS compared to dacarbazine” value ([1]; human, in vivo) is listed as “improvement in PFS”.

For `O=C(c1ccc(F)c(F)c1Nc1ccc(I)cc1F)N1CC(O)([C@@H]2CCCCN2)C1` [cobimetinib], the “PFS over vemurafenib treatment alone” value ([1]; in combination with vemurafenib) is listed as “significant increase in PFS”.

In the case of rituximab: anti-CD20 antibody, the “response rate to single agent retreatment” value ([2]; rituximab refractory (RR) patients, reasonable estimate, no trial data reported) is given as < 5% and the “patients responding to retreatment” value ([2]; rituximab sensitive (RS) patients) is given as “approximately 40%”.
